In PubChem BioAssay (NCI):
Values joined by “and” are separate entries in the source; they are usually repeats but may differ in a detail not shown here. Equal entries are not always repeated.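 Results reflect a 48-hour exposure of cells in 96-well plates to compound at five concentrations. GI50 = concentration required for 50% inhibition of growth. The concentration for full growth arrest is given as TGI.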

What was measured:
Assay in all cases: NCI anticancer screen, dose series, 48 h
NCI/ADR-RES ovarian = system: NCI/ADR-RES ovarian
SNB-19 CNS = system: SNB-19 CNS
IGROV1 ovarian = system: IGROV1 ovarian
HOP-92 NSCLC = system: HOP-92 NSCLC
MCF7 breast = system: MCF7 breast
MDA-MB-435 = system: MDA-MB-435
UACC-62 melanoma = system: UACC-62 melanoma
MOLT-4 leukemia = system: MOLT-4 leukemia
HCC-2998 colon = system: HCC-2998 colon
SK-OV-3 ovarian = system: SK-OV-3 ovarian

| SMILES | TGI (NCI/ADR-RES ovarian) | TGI (SNB-19 CNS) [µM] | TGI (IGROV1 ovarian) [µM] | TGI (HOP-92 NSCLC) | TGI (MCF7 breast) [µM] | TGI (MDA-MB-435) [µM] | TGI (UACC-62 melanoma) | TGI (MOLT-4 leukemia) | TGI (HCC-2998 colon) | TGI (SK-OV-3 ovarian) [µM] | GI50 (NCI/ADR-RES ovarian) | GI50 (SNB-19 CNS) | GI50 (IGROV1 ovarian) | GI50 (HOP-92 NSCLC) [µM] | GI50 (MCF7 breast) | GI50 (MDA-MB-435) | GI50 (UACC-62 melanoma) [µM] | GI50 (MOLT-4 leukemia) [µM] | GI50 (HCC-2998 colon) [µM] | GI50 (SK-OV-3 ovarian) |
| --- | --- | --- | --- | --- | --- | --- | --- | --- | --- | --- | --- | --- | --- | --- | --- | --- | --- | --- | --- | --- |
| C=CCNC(=O)CN(CC(=O)O)C1CCCCC1N(CC(=O)O)CC(=O)O (stereo not given) | > 100 µM | > 100 | > 100 | > 100 µM | > 100 | > 100 | > 100 µM | > 100 µM | > 100 µM | > 100 | – | – | – | – | – | – | – | – | – | – |
| C[C@H]1C[C@H]2[C@@H]3CCC4=CC(=O)C=C[C@]4(C)C3=CC[C@]2(C)[C@@]1(O)C(=O)CO | > 100 µM | > 100 | > 100 | > 100 µM | > 100 | > 100 | > 100 µM | > 100 µM | > 100 µM | > 100 | – | – | – | – | – | – | – | – | – | – |
| COc1ccc(NC(=O)C(=O)Cc2nc3ccc(C(=O)c4ccccc4)cc3[nH]c2=O)c([N+](=O)[O-])c1 | 33.2 µM | > 100 | 60.7 | 74.4 µM | > 100 | 66.1 | 78.5 µM | 40.1 µM | > 100 µM | > 100 | – | – | – | – | – | – | – | – | – | – |
| O/N=C1/CCCc2nonc21 | > 100 µM | > 100 | > 100 | > 100 µM | > 100 | > 100 | > 100 µM | > 100 µM | > 100 µM | > 100 | – | – | – | – | – | – | – | – | – | – |
| CC(=O)O[C@@H]1[C@H]2[C@@H](OC(=O)c3ccccc3)[C@@H](C)C[C@]2(O)[C@H](OC(C)=O)[C@@]2(C)[C@@H]3C[C@@](C)(OC(C)=O)C[C@@H](OC(C)=O)[C@@]3(OC(C)=O)C[C@@]12C | > 10 µM | > 10 | > 10 | > 10 µM | > 10 | > 10 | > 10 µM | > 10 µM | > 10 µM | > 10 | – | – | – | – | – | – | – | – | – | – |
| Cc1ccc(S(=O)(=O)N2CC(CCN)c3ccccc32)cc1 (stereo not given) | 17 µM | 31.3 | > 53.4 | 52.7 µM | 29.8 | 27.1 | 11.7 µM | > 83.9 µM | 30.3 µM | > 44.7 | – | – | – | – | – | – | – | – | – | – |
| COc1cc(C(=O)O)c(-c2cc3c(cc2C=O)OCO3)c(OC)c1OC | > 10 µM | > 10 | > 10 | > 10 µM | > 10 | > 10 | > 10 µM | > 10 µM | > 10 µM | > 10 | – | – | – | – | – | – | – | – | – | – |
| O=C1C=C(C2=C(C3=CC(=O)c4ccccc4C3=O)C(=O)c3ccccc3C2=O)C(=O)c2ccccc21 | 36.4 µM | 37.7 | 8.1 | 18 µM | 29.6 | 6.28 | 31.6 µM | 2.27 µM | 43.1 µM | 66.5 | – | – | – | – | – | – | – | – | – | – |
| CNC(=O)CCCNC(=O)CCCC(=O)OC | > 100 µM | > 100 | > 100 | > 100 µM | > 100 | > 100 | > 100 µM | > 100 µM | > 100 µM | > 100 | – | – | – | – | – | – | – | – | – | – |
| O=S(=O)(O)c1ccc2cc(N=Nc3c(O)ccc4ccccc34)ccc2c1 | > 100 µM | > 100 | > 100 | > 100 µM | > 100 | > 100 | > 100 µM | > 100 µM | > 100 µM | > 100 | – | – | – | – | – | – | – | – | – | – |
| O=c1[nH]c2nc[nH]c2c(=O)n1C1CCCCC1 | > 100 µM | > 100 | > 100 | > 100 µM | > 100 | > 100 | > 100 µM | > 100 µM | > 100 µM | > 100 | – | – | – | – | – | – | – | – | – | – |
| Cc1nc(N(C(C)C)C(C)C)c(C(C)C)o1 | > 100 µM | > 100 | > 100 | > 100 µM | > 100 | > 100 | > 100 µM | > 100 µM | > 100 µM | > 100 | – | – | – | – | – | – | – | – | – | – |
| O=C(O)CCCc1ccccc1 | 343 µM and 47.1 µM | > 1000 | > 1000 | 363 µM and > 1000 µM | > 1000 | > 1000 | 587 µM and > 1000 µM | 394 µM and > 1000 µM | 517 µM and > 1000 µM | > 1000 | 83.1 µM and 21.2 µM | 537 µM and > 1000 µM | 412 µM and > 1000 µM | > 1000 | 160 µM and > 1000 µM | 292 µM and > 1000 µM | > 1000 | > 1000 | > 1000 | 522 µM and > 1000 µM |
| O=C1CSC(c2ccccc2O)N1c1ccc(Oc2ccc(Cl)cc2)c(Cl)c1 (stereo not given) | 48.4 µM | 65 | 77.4 | 39.1 µM | 86.3 | 69 | 34.3 µM | 81 µM | 40.4 µM | 47.9 | – | – | – | – | – | – | – | – | – | – |
| COc1ccc(C(=O)Oc2c(C#N)sc3c2c(=O)n(-c2ccccc2)c(=S)n3-c2ccccc2)cc1 | 52 µM | > 100 | 44.4 | 67.5 µM | 80.4 | 60.7 | 24.5 µM | 46.5 µM | 84.8 µM | > 100 | – | – | – | – | – | – | – | – | – | – |
| OC1COC(OCc2ccccc2)C(O)C1O (stereo not given) | > 100 µM | > 100 | > 100 | > 100 µM | > 100 | > 100 | > 100 µM | > 100 µM | > 100 µM | > 100 | – | – | – | – | – | – | – | – | – | – |
| c1ccc(COC2C3COC(O3)C(OCc3ccccc3)C2OCc2ccccc2)cc1 (stereo not given) | > 100 µM | > 100 | > 100 | > 100 µM | > 100 | > 100 | > 100 µM | 56.5 µM | 52.1 µM | > 100 | – | – | – | – | – | – | – | – | – | – |
| COC1=C2CC(C)CC(OC)C(OC(=O)CCCN)C(C)/C=C(\C)C(OC(N)=O)C(OC)/C=C\C=C(/C)C(=O)NC(=CC1=O)C2=O (stereo not given) | 43.7 µM | 24.9 | 18.6 | 14.6 µM | 13.2 | 12.4 | 18.7 µM | 3.81 µM | 19.4 µM | 35.1 | – | – | – | – | – | – | – | – | – | – |
| CCCCCCCCCCCCC(O)C(=O)O (stereo not given) | > 100 µM | > 100 | > 100 | > 100 µM | > 100 | > 100 | > 100 µM | > 100 µM | > 100 µM | > 100 | – | – | – | – | – | – | – | – | – | – |
| CC(C)CCC[C@@H](C)[C@H]1CC[C@H]2C3=C[C@H](OS(=O)(=O)O)[C@@]4(O)C[C@@H](O)CC[C@]4(C)[C@@]3(O)CC[C@]12C | > 100 µM | > 100 | > 100 | > 100 µM | > 100 | > 100 | > 100 µM | > 100 µM | > 100 µM | > 100 | – | – | – | – | – | – | – | – | – | – |
| O=C(NCCCCCCCN1CCCCCCC1)C(C1CCCCC1)C1CCCCC1 | 25.1 µM | 27.9 | 27.3 | 23.7 µM | 19.8 | 22.2 | 10.1 µM | 20.4 µM | 7.59 µM | 23.6 | – | – | – | – | – | – | – | – | – | – |
| O=C(Nc1ccc2[nH]c(C(=O)N3CC(CCl)c4ccc([N+](=O)[O-])cc43)cc2c1)c1cc2ccccc2o1 (stereo not given) | > 1100 µM | > 1100 | > 1100 | > 1100 µM | > 1100 | > 1100 | > 1100 µM | > 1100 µM | > 1100 µM | > 1100 | – | – | – | – | – | – | – | – | – | – |
| c1cncc(CSc2ncnc3nc[nH]c23)c1 | > 100 µM | > 100 | > 100 | > 100 µM | > 100 | > 100 | > 100 µM | > 100 µM | > 100 µM | > 100 | – | – | – | – | – | – | – | – | – | – |
| C[C@H](NC(=O)CNC(=O)CCCCCC(=O)NCC(=O)N[C@@H](C)C(=O)OCc1ccccc1)C(=O)OCc1ccccc1 | > 100 µM | > 100 | > 100 | > 100 µM | > 100 | > 100 | > 100 µM | > 100 µM | > 100 µM | > 100 | – | – | – | – | – | – | – | – | – | – |
| NC(=O)c1sc2nc3ccccc3n2c1N | > 100 µM | > 100 | > 100 | > 100 µM | > 100 | > 100 | > 100 µM | > 100 µM | > 100 µM | 89.4 | – | – | – | – | – | – | – | – | – | – |
| CCOC(=O)/C=C/C1(CCOC(C)=O)CCCCC1 | > 10 µM | > 10 | > 10 | > 10 µM | > 10 | > 10 | > 10 µM | > 10 µM | > 10 µM | > 10 | – | – | – | – | – | – | – | – | – | – |
| CC1SC(c2ccc(Cl)cc2)N(CCc2cccs2)C1=O (stereo not given) | 3.2 µM | 3.31 | 5.77 | 2.2 µM | 6.23 | 3.06 | 2.35 µM | 9.11 µM | 3.4 µM | 5.79 | 1.39 µM | 1.65 µM | 1.8 µM | 0.855 | 2.11 µM | 1.51 µM | 1.05 | 2.46 | 1.55 | 2.05 µM |
| CCOC(=O)/C=C\C(C#N)(C#N)N=Cc1ccsc1 | 15.3 µM | 55.2 | 28.2 | 4.52 µM | 8 | 6.63 | 32 µM | 5.61 µM | 32.3 µM | 35.6 | – | – | – | – | – | – | – | – | – | – |
| COc1ccc(NC/C=C/C(=C/COC(C)=O)OC(C)=O)cc1 | 7.04 µM | 9.29 | 3.56 | 3.87 µM | > 100 | 3.14 | 14.5 µM | > 100 µM | 6.84 µM | 28.2 | – | – | – | – | – | – | – | – | – | – |
| Cc1ccc(/N=N/C(=NNC(=O)c2ccc(C)cc2)c2ccc(N(C)C)cc2)cc1 | > 100 µM | 58.7 | > 100 | 80.2 µM | 46.2 | 39.5 | 23.4 µM | > 100 µM | 73.2 µM | 76.2 | – | – | – | – | – | – | – | – | – | – |
